Measurements from patent publication US20240044899A1, “BIOMARKERS FOR FIMEPINOSTAT THERAPY” (Curis, Inc, priority 2021, published 2024).

How the values were obtained:
[1] = Phase 1 and phase 2 clinical studies of fimepinostat, treatment-emergent adverse events (CTCAE v4.03); type: in vivo, human; conditions: for TEAE White blood cell count decreased, patients n (%) / TEAE Abdominal pain, patients n (%) / TEAE Anemia, patients n (%) / TEAE Arthralgia, patients n (%) / TEAE Back pain, patients n (%) / TEAE Constipation, patients n (%) / TEAE Cough, patients n (%) / TEAE Decreased appetite, patients n (%) / TEAE Diarrhea, patients n (%) / TEAE Dizziness, patients n (%) / TEAE Dyspnea, patients n (%) / TEAE Edema peripheral, patients n (%) / TEAE Fatigue, patients n (%) / TEAE Hypokalemia, patients n (%) / TEAE Hypomagnesaemia, patients n (%) / TEAE Hypophosphatemia, patients n (%) / TEAE Lymphocyte count decreased, patients n (%) / TEAE Nausea, patients n (%) / TEAE Neutropenia, patients n (%) / TEAE Pain in extremity, patients n (%) / TEAE Pyrexia, patients n (%) / TEAE Thrombocytopenia, patients n (%) / TEAE Upper respiratory tract infection, patients n (%) / TEAE Vomiting, patients n (%) / TEAE Weight decreased, patients n (%): intention to treat population (n = 58)
Method: Patients received fimepinostat capsules (Pharmatek Laboratories Inc., San Diego, CA, USA) orally, within 30 minutes of a meal, in 21-day cycles until disease progression was documented or other discontinuation criteria were met. In the phase 2 protocol, change in dose and/or schedule intensity of fimepinostat were allowed as per protocol due to toxicity. Safety and tolerability were assessed by the incidence and severity of adverse events as determined by NCI Common Terminology Criteria for Adverse Events (CTCAE v4.03) in both protocols.
The intention to-treat-population included al patients from both protocols who received at least one dose of fimepinostat. The evaluable population includes all patients who received at least one dose of study drug (phase 1) or one full cycle of treatment (phase 2) and completed at least one post-baseline disease assessment. Patients were re-staged according to the Revised Response Criteria for Malignant Lymphoma.^18
All patients received fimepinostat 60 mg by mouth 5 days on/2 days off as the starting dose with the exception of 1 patient enrolled in the phase 1 protocol who received 60 mg by mouth three times weekly. Three patients enrolled in the phase 1 protocol received concurrent rituximab.
Treatment-emergent adverse events (TEAE) occurring per patient by highest grade experienced with a frequency of ≥10% are listed in Table 5. The most common TEAE of any grade were diarrhea (72%), nausea (52%) and thrombocytopenia (38%). The most common grade 3 or 4 adverse events were […], neutropenia (15%), diarrhea (12%) and anemia (12%). Three patients experienced grade 5 TEAE: respiratory failure deemed unlikely related to treatment in 1 patient, sepsis deemed not related to treatment in 1 patient and tracheal obstruction deemed not related to treatment in 1 patient. Two non-evaluable patients discontinued treatment due to TEAE: grade 2 vomiting deemed related to treatment occurring in 1 patient and grade 4 hypercalcemia deemed unlikely related to treatment in 1 patient.

[2] = system: DLBCL xenografts with MYC alterations; conditions: cited from earlier work
[3] = system: DLBCL patients with MYC-altered disease; conditions: 11 evaluable DLBCL patients with MYC-altered disease, phase 1, cited from earlier work

COc1ccc(-c2nc(N3CCOCC3)c3sc(CN(C)c4ncc(C(=O)NO)cn4)cc3n2)cn1 [fimepinostat, Fimepinostat]
TEAE White blood cell count decreased, patients n (%) ([1]; Grade 4): 1 (2)
TEAE Abdominal pain, patients n (%) ([1]; Grades 1-2): 6 (10)
TEAE Anemia, patients n (%) ([1]; Grades 1-2): 6 (10)
TEAE Arthralgia, patients n (%) ([1]; Grades 1-2): 7 (12)
TEAE Back pain, patients n (%) ([1]; Grades 1-2): 5 (9)
TEAE Constipation, patients n (%) ([1]; Grades 1-2): 14 (24)
TEAE Cough, patients n (%) ([1]; Grades 1-2): 9 (16)
TEAE Decreased appetite, patients n (%) ([1]; Grades 1-2): 18 (31)
TEAE Diarrhea, patients n (%) ([1]; Grades 1-2): 35 (60)
TEAE Dizziness, patients n (%) ([1]; Grades 1-2): 8 (14)
TEAE Dyspnea, patients n (%) ([1]; Grades 1-2): 6 (10)
TEAE Edema peripheral, patients n (%) ([1]; Grades 1-2): 6 (10)
TEAE Fatigue, patients n (%) ([1]; Grades 1-2): 18 (31)
TEAE Hypokalemia, patients n (%) ([1]; Grades 1-2): 7 (12)
TEAE Hypomagnesaemia, patients n (%) ([1]; Grades 1-2): 7 (12)
TEAE Hypophosphatemia, patients n (%) ([1]; Grades 1-2): 2 (3)
TEAE Lymphocyte count decreased, patients n (%) ([1]; Grades 1-2): 3 (5)
TEAE Nausea, patients n (%) ([1]; Grades 1-2): 30 (52)
TEAE Neutropenia, patients n (%) ([1]; Grades 1-2): 2 (3)
TEAE Pain in extremity, patients n (%) ([1]; Grades 1-2): 6 (10)
TEAE Pyrexia, patients n (%) ([1]; Grades 1-2): 9 (16)
TEAE Thrombocytopenia, patients n (%) ([1]; Grades 1-2): 8 (14)
TEAE Upper respiratory tract infection, patients n (%) ([1]; Grades 1-2): 6 (10)
TEAE Vomiting, patients n (%) ([1]; Grades 1-2): 15 (26)
TEAE Weight decreased, patients n (%) ([1]; Grades 1-2): 7 (12)
TEAE White blood cell count decreased, patients n (%) ([1]; Grades 1-2): 3 (5)
Diarrhea, frequency ([1]; TEAE of any grade): 72%
Nausea, frequency ([1]; TEAE of any grade): 52%
Thrombocytopenia, frequency ([1]; TEAE of any grade): 38%
TEAE Abdominal pain, patients n (%) ([1]; Total): 9 (16)
TEAE Anemia, patients n (%) ([1]; Total): 13 (22)
TEAE Arthralgia, patients n (%) ([1]; Total): 7 (12)
TEAE Back pain, patients n (%) ([1]; Total): 6 (10)
TEAE Constipation, patients n (%) ([1]; Total): 14 (24)
TEAE Cough, patients n (%) ([1]; Total): 9 (16)
TEAE Decreased appetite, patients n (%) ([1]; Total): 18 (31)
TEAE Diarrhea, patients n (%) ([1]; Total): 42 (72)
TEAE Dizziness, patients n (%) ([1]; Total): 8 (14)
TEAE Dyspnea, patients n (%) ([1]; Total): 9 (16)
TEAE Edema peripheral, patients n (%) ([1]; Total): 6 (10)
TEAE Fatigue, patients n (%) ([1]; Total): 19 (33)
TEAE Hypokalemia, patients n (%) ([1]; Total): 13 (22)
TEAE Hypomagnesaemia, patients n (%) ([1]; Total): 7 (12)
TEAE Hypophosphatemia, patients n (%) ([1]; Total): 6 (10)
TEAE Lymphocyte count decreased, patients n (%) ([1]; Total): 6 (10)
TEAE Nausea, patients n (%) ([1]; Total): 30 (52)
TEAE Neutropenia, patients n (%) ([1]; Total): 11 (19)
TEAE Pain in extremity, patients n (%) ([1]; Total): 7 (12)
TEAE Pyrexia, patients n (%) ([1]; Total): 10 (17)
TEAE Thrombocytopenia, patients n (%) ([1]; Total): 22 (38)
TEAE Upper respiratory tract infection, patients n (%) ([1]; Total): 6 (10)
TEAE Vomiting, patients n (%) ([1]; Total): 16 (28)
TEAE Weight decreased, patients n (%) ([1]; Total): 8 (14)
TEAE White blood cell count decreased, patients n (%) ([1]; Total): 7 (12)
Non-evaluable patients who discontinued treatment due to TEAE, number ([1]; grade 2 vomiting (related), grade 4 hypercalcemia (unlikely related)): Two
Anemia, frequency ([1]; grade 3 or 4): 12%
Diarrhea, frequency ([1]; grade 3 or 4): 12%
Most common grade 3 or 4 adverse event (event name not given), frequency ([1]; grade 3 or 4): 24%
Neutropenia, frequency ([1]; grade 3 or 4): 15%
Patients who experienced grade 5 TEAE, number ([1]; respiratory failure, sepsis, tracheal obstruction, unlikely or not related to treatment): Three
Preclinical activity compared to HDAC or PI3K inhibitor monotherapy [2]: superior preclinical activity
Overall response rate ([3]; central or local testing): 64%
Estimated duration of response [3]: 13.6 month
